# Experimental data: ChEMBL document CHEMBL4422633, “Antioxidant-Inspired Drug Discovery: Antitumor Metabolite Is Formed in Situ from a Hydroxycinnamic Acid Derivative upon Free-Radical Scavenging” (J Med Chem, 2019)
# Calls of active or inactive are those of the source. The rule behind the calls is not given here.
# Assays:
# [1] = Cytotoxicity against mouse L5178 cells assessed as reduction in cell viability after 72 hrs by MTT assay; format: functional, cell-based; settings: L5178, 72 h
# [2] = Cytotoxicity against mouse L5178B1 cells transfected with pHa MDR1/A retrovirus assessed as reduction in cell viability after 72 hrs by MTT assay; format: functional, cell-based; settings: MDR1, 72 h
# NCI-H460 [3] = test: Cytotoxicity against human NCI-H460 cells assessed as reduction in cell viability after 72 hrs by MTT assay; format: functional, cell-based; settings: NCI-H460, 72 h
# [4] = Cytotoxicity against human NCI-H460/R cells transfected with MDR assessed as reduction in cell viability after 72 hrs by MTT assay; format: functional, cell-based; settings: NCI-H460, 72 h
# A549 [5] = test: Cytotoxicity against human A549 cells assessed as reduction in cell viability after 72 hrs by MTT assay; format: functional, cell-based; settings: A549, 72 h
# NCI-H661 [6] = test: Cytotoxicity against human NCI-H661 cells assessed as reduction in cell viability after 72 hrs by MTT assay; format: functional, cell-based; settings: NCI-H661, 72 h
# HaCaT [7] = test: Cytotoxicity against human HaCaT cells assessed as reduction in cell viability after 72 hrs by MTT assay; format: cell-based
# HeLa = test: Cytotoxicity against human HeLa cells assessed as reduction in cell viability after 72 hrs by MTT assay; format: functional, cell-based
# NCI-H460 [8] = test: Induction of apoptosis in human NCI-H460 cells assessed as viable cells at 10 uM after 24 hrs by Annexin V/propidium iodide-staining based flow cytometry (reference value: 96.49 +/- 0.96%); format: functional; settings: NCI-H460, 24 h, read-out: Activity
# [9] = Induction of apoptosis in human NCI-H460/R cells transfected with MDR assessed as viable cells at 10 uM after 24 hrs by Annexin V/propidium iodide-staining based flow cytometry (reference value: 95.76 +/- 2.87%); format: functional; settings: NCI-H460, 24 h, read-out: Activity
# A549 [10] = test: Induction of apoptosis in human A549 cells assessed as viable cells at 10 uM after 24 hrs by Annexin V/propidium iodide-staining based flow cytometry (reference value: 96.45 +/- 2.89%); format: functional; settings: A549, 24 h, read-out: Activity
# NCI-H661 [11] = test: Induction of apoptosis in human NCI-H661 cells assessed as viable cells at 10 uM after 24 hrs by Annexin V/propidium iodide-staining based flow cytometry (reference value: 96.16 +/- 0.96%); format: functional; settings: NCI-H661, 24 h, read-out: Activity
# [12] = Induction of apoptosis in human HaCaT cells assessed as viable cells at 10 uM after 24 hrs by Annexin V/propidium iodide-staining based flow cytometry (reference value: 95.63 +/- 3.83%); format: cell-based; settings: read-out: Activity
# NCI-H460 [13] = test: Induction of apoptosis in human NCI-H460 cells assessed as early apoptotic cells at 10 uM after 24 hrs by Annexin V/propidium iodide-staining based flow cytometry (reference value: 0.45 +/- 0.01%); format: functional
# [14] = Induction of apoptosis in human NCI-H460/R cells transfected with MDR assessed as early apoptotic cells at 10 uM after 24 hrs by Annexin V/propidium iodide-staining based flow cytometry (reference value: 0.22 +/- 0.01%); format: functional
# A549 [15] = test: Induction of apoptosis in human A549 cells assessed as early apoptotic cells at 10 uM after 24 hrs by Annexin V/propidium iodide-staining based flow cytometry (reference value: 0.48 +/- 0.01%); format: functional
# NCI-H661 [16] = test: Induction of apoptosis in human NCI-H661 cells assessed as early apoptotic cells at 10 uM after 24 hrs by Annexin V/propidium iodide-staining based flow cytometry (reference value: 0.31 +/- 0.01%); format: functional
# HaCaT [17] = test: Induction of apoptosis in human HaCaT cells assessed as early apoptotic cells at 10 uM after 24 hrs by Annexin V/propidium iodide-staining based flow cytometry (reference value: 0.23 +/- 0.01%); format: cell-based
# NCI-H460 [18] = test: Induction of apoptosis in human NCI-H460 cells assessed as late apoptotic cells at 10 uM after 24 hrs by Annexin V/propidium iodide-staining based flow cytometry (reference value: 0.93 +/- 0.04%); format: functional
# [19] = Induction of apoptosis in human NCI-H460/R cells transfected with MDR assessed as late apoptotic cells at 10 uM after 24 hrs by Annexin V/propidium iodide-staining based flow cytometry (reference value: 0.84 +/- 0.01%); format: functional
# A549 [20] = test: Induction of apoptosis in human A549 cells assessed as late apoptotic cells at 10 uM after 24 hrs by Annexin V/propidium iodide-staining based flow cytometry (reference value: 1.54 +/- 0.03%); format: functional
# NCI-H661 [21] = test: Induction of apoptosis in human NCI-H661 cells assessed as late apoptotic cells at 10 uM after 24 hrs by Annexin V/propidium iodide-staining based flow cytometry (reference value: 0.95 +/- 0.03%); format: functional
# HaCaT [22] = test: Induction of apoptosis in human HaCaT cells assessed as late apoptotic cells at 10 uM after 24 hrs by Annexin V/propidium iodide-staining based flow cytometry (reference value: 2.26 +/- 0.09%); format: cell-based
# NCI-H460 [23] = test: Induction of apoptosis in human NCI-H460 cells assessed as necrotic cells at 10 uM after 24 hrs by Annexin V/propidium iodide-staining based flow cytometry (reference value: 2.13 +/- 0.02%); format: functional
# [24] = Induction of apoptosis in human NCI-H460/R cells transfected with MDR assessed as necrotic cells at 10 uM after 24 hrs by Annexin V/propidium iodide-staining based flow cytometry (reference value: 3.17 +/- 0.13%); format: functional
# A549 [25] = test: Induction of apoptosis in human A549 cells assessed as necrotic cells at 10 uM after 24 hrs by Annexin V/propidium iodide-staining based flow cytometry (reference value: 1.52 +/- 0.05%); format: functional
# NCI-H661 [26] = test: Induction of apoptosis in human NCI-H661 cells assessed as necrotic cells at 10 uM after 24 hrs by Annexin V/propidium iodide-staining based flow cytometry (reference value: 2.58 +/- 0.05%); format: functional
# HaCaT [27] = test: Induction of apoptosis in human HaCaT cells assessed as necrotic cells at 10 uM after 24 hrs by Annexin V/propidium iodide-staining based flow cytometry (reference value: 1.88 +/- 0.02%); format: cell-based
# NCI-H460 [28] = test: DNA protective activity in human NCI-H460 cells assessed as reduction in H2AX expression at 10 uM after 24 hrs by alexa fluor 488-staining based flow cytometry; format: functional, cell-based
# HaCaT [29] = test: DNA protective activity in human HaCaT cells assessed as reduction in H2AX expression at 10 uM after 24 hrs by alexa fluor 488-staining based flow cytometry; format: functional, cell-based
# Homo sapiens [30] = species: Homo sapiens; test: DNA protective activity in human NCI-H460/R cells transfected with MDR assessed as increase in H2AX expression at 10 uM after 24 hrs by alexa fluor 488-staining based flow cytometry; format: functional, cell-based
# NCI-H460 [31] = test: Reduction in ROS generation in human NCI-H460 cells assessed as decrease in DHE positive cells at 10 uM after 24 hrs by DHE-staining based flow cytometry; format: functional, cell-based
# A549 [32] = test: Reduction in ROS generation in human A549 cells assessed as decrease in DHE positive cells at 10 uM after 24 hrs by DHE-staining based flow cytometry; format: functional, cell-based
# NCI-H661 [33] = test: Reduction in ROS generation in human NCI-H661 cells assessed as decrease in DHE positive cells at 10 uM after 24 hrs by DHE-staining based flow cytometry; format: functional, cell-based
# Homo sapiens [34] = species: Homo sapiens; test: Reduction in ROS generation in human NCI-H460/R cells transfected with MDR assessed as reduction in DHE positive cells at 10 uM after 24 hrs by DHE-staining based flow cytometry; format: functional, cell-based
# HaCaT [35] = test: Reduction in ROS generation in human HaCaT cells assessed as decrease in DHE positive cells at 10 uM after 24 hrs by DHE-staining based flow cytometry; format: functional, cell-based
smiles,measurement,setting,value
COC(=O)/C=C/c1cc(O)ccc1O,IC50,[1],5.23 µM
same,IC50,[2],12.4 µM
same,IC50,NCI-H460 [3],3.77 µM
same,IC50,[4],7.05 µM
same,IC50,A549 [5],4.14 µM
same,IC50,NCI-H661 [6],4.19 µM
same,IC50,HaCaT [7],9.69 µM
same,IC50,HeLa,8.51 µM
same,viability at 10 µM,NCI-H460 [8],86.6%
same,viability at 10 µM,[9],89.7%
same,viability at 10 µM,A549 [10],88.2%
same,viability at 10 µM,NCI-H661 [11],89.4%
same,"viability at 24 h, 10 µM",[12],91%
same,Activity,NCI-H460 [13],0.34%
same,Activity,[14],0.16%
same,Activity,A549 [15],2.36%
same,Activity,NCI-H661 [16],0.49%
same,Activity,HaCaT [17],0.5%
same,Activity,NCI-H460 [18],5.1%
same,Activity,[19],2.48%
same,Activity,A549 [20],5.62%
same,Activity,NCI-H661 [21],3.39%
same,Activity,HaCaT [22],2.65%
same,Activity,NCI-H460 [23],9.92%
same,Activity,[24],7.71%
same,Activity,A549 [25],3.78%
same,Activity,NCI-H661 [26],6.69%
same,Activity,HaCaT [27],5.9%
same,Activity,NCI-H460 [28],Active
same,Activity,HaCaT [29],Active
same,Activity,Homo sapiens [30],Active
same,Activity,NCI-H460 [31],Active
same,Activity,A549 [32],Active
same,Activity,NCI-H661 [33],Active
same,Activity,Homo sapiens [34],Active
same,Activity,HaCaT [35],Active
